Results taken from PubChem BioAssay (NCI).
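Each compound was tested at five concentrations against cells in 96-well plates for 48 hours. The concentration for 50% growth inhibition is given as GI50. TGI marks complete inhibition of growth.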

Assays:
Test in all cases: NCI-60 cell line screen, 48 h
HCC-2998 colon = system: HCC-2998 colon
HS 578T breast = system: HS 578T breast
M14 melanoma = system: M14 melanoma
NCI-H460 lung = system: NCI-H460 lung
OVCAR-8 ovarian = system: OVCAR-8 ovarian
RPMI-8226 leukemia = system: RPMI-8226 leukemia
SNB-75 CNS = system: SNB-75 CNS
TK-10 renal = system: TK-10 renal
K-562 leukemia = system: K-562 leukemia
RXF 393 renal = system: RXF 393 renal

Compound	GI50 (HCC-2998 colon) [µM]	TGI (HCC-2998 colon) [µM]	GI50 (HS 578T breast) [µM]	TGI (HS 578T breast) [µM]	GI50 (M14 melanoma) [µM]	TGI (M14 melanoma) [µM]	GI50 (NCI-H460 lung) [µM]	TGI (NCI-H460 lung) [µM]	GI50 (OVCAR-8 ovarian) [µM]	TGI (OVCAR-8 ovarian) [µM]	GI50 (RPMI-8226 leukemia) [µM]	TGI (RPMI-8226 leukemia) [µM]	GI50 (SNB-75 CNS) [µM]	TGI (SNB-75 CNS) [µM]	GI50 (TK-10 renal) [µM]	TGI (TK-10 renal) [µM]	TGI (K-562 leukemia) [µM]	TGI (RXF 393 renal) [µM]	GI50 (K-562 leukemia) [µM]	GI50 (RXF 393 renal) [µM]
CN(C)c1ccc(/C=C(\C#N)c2cc3ccccc3[nH]2)cc1	6.59	> 100	1.63	9.49	0.551	> 100	0.476	> 100	2.35	> 100	0.63	4.91	1.31	4.59	2.66	> 100				
NS(=O)(=O)c1ccc(N=Nc2ccc[nH]c2=O)cc1				> 100		> 100		> 100		> 100		> 100		> 100		> 100	> 100	> 100		
CCOC(=O)C1=C(C)NC(=O)NC1c1ccc(OC)cc1OC (stereo not given)		> 100				> 100		> 100		> 100		> 100		> 100		> 100	> 100	> 100		
NC(=O)c1c(NC(=O)c2cccs2)sc2c1CCC(=O)C2	4.13	48.9	3.27	> 100	3.73	> 100	2.98	> 100	3.02	> 100			1.7	9.05	6.33	> 100	> 100	8.49	0.736	2.05
COc1ccc(Oc2nc3cc(N)cc(N)c3nc2-c2ccccc2)cc1			24.3	> 100	> 100	> 100	30.6	> 100	32.3	> 100		71.4			53.5	> 100	> 100	73.9	26.1	19.9
C=CCCCCCCCCCP(=O)(c1ccccc1)c1ccc2c(c1)OCCOCCOCCOCCO2 (stereo not given)		31.2				> 100		26.4		30.3		31.8		33.1		32.4	24.6	27.4		
C[P+]1(Cc2ccccc2)CCCC1		> 100				> 100		> 100		> 100		> 100		> 100		> 100	> 100	> 100		
CC(=O)[CH-]C(=O)c1ccccc1.CC(=O)[CH-]C(=O)c1ccccc1.Cl.[O-]c1ccnc2ccccc12.[O-]c1ccnc2ccccc12.[Ti+4]	> 100	> 100			> 100	> 100	> 100	> 100	> 100	> 100	> 100	> 100	> 100	> 100			> 100		> 100	
c1ccc(C2=NOC3C4CCC(C4)C23)cc1 (stereo not given)		> 100				> 100		> 100		> 100		> 100		> 100		> 100	> 100			
O=C1c2ccccc2C(=O)N1CCCOCc1c[nH]c(=O)[nH]c1=O						> 100		> 100		> 100		> 100		> 100		> 100	> 100	> 100		
CC(=Nc1ccc(N(C)C)cc1)c1ccccc1		> 100		65.1		29.9		> 100		> 100				77.4		40.1	74.7	20.6		
COc1cccc(NC(=O)CSc2nnc(Cc3ccccc3)o2)c1		> 100				> 100		> 100		> 100		> 100		> 100		> 100	> 100	> 100		
CN(C)NC1=C([N+](=O)[O-])C=NN(c2ccccc2)C1		3.18				3.23		4.1		4.16				3.34		11.8	6.15	3.46		
COC(=O)[C@H](Cc1cn(C)cn1)NC(=O)[C@H](CC(=O)OCc1ccccc1)NC(=O)Nc1cc(C(F)(F)F)cc(C(F)(F)F)c1			2.8	8.09	3.38	11.3	13.4	28.7	4.49	16.9	4.24	17.5	11.8	24.1			15.7		4.15	
C=C1C(=O)O[C@H](c2ccoc2)C[C@@H]1[C@@]1(C)CCCC2(C)C(=O)OCC21 (stereo not given in full)		> 100				> 100		> 100		> 100		> 100		> 100		> 100	> 100	> 100		
CN(c1ccccc1)c1cc2ccccc2nn1						> 100		> 100		> 100		> 100		> 100		> 100	> 100	> 100		
Cc1cccc(C)c1NC(=O)CCC(=O)NC(N)=NC#N		> 100				> 100		> 100		> 100		> 100		> 100		> 100	> 100	> 100		
CN(C)NC(=O)/C(=C/c1ccc(Cl)cc1)NC(=O)c1ccccc1		> 100				> 100		> 100		> 100		> 100		> 100		> 100	> 100	> 100		
CC1OC(n2cc(C(F)(F)F)c(=O)[nH]c2=O)C=CC1=O (stereo not given)		32.3				59.8		48.6		80		37.4		32.8		35.3	> 100			
COc1ccc(CN2C(=O)[C@@H]3Cc4c(OC)c(C)c(OC)c(OC)c4[C@H](/C2=C\c2cc(OC)c(OC)c(C)c2OC)N3C(=O)OC(C)C)cc1		> 100				> 100		> 100		> 100		> 100		> 100		> 100	> 100	> 100		
CC(=O)OCC1OC(n2cccnc2=O)C(OC(C)=O)C1OC(C)=O (stereo not given)						> 100		> 100		> 100		> 100		> 100		> 100	> 100	> 100		
